Laboratory results as given in ChEMBL document CHEMBL1201862, “PubChem BioAssay data set” (2004).
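Tested at 5 concentrations; 48 h exposure; 96-well plates; endpoints linearly interpolated, else capped at highest concentration. The concentration for 50% growth inhibition is given as GI50.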 Active and inactive are the calls of the source. Cut-off read from the data, not from the text of the source: active = GI50 up to about 1.1 µM and inactive = higher.

Columns and labels:
Assay in all cases: NCI-60 cell line screen, 48 h
[1] = test system: MCF7
[2] = test system: SN12C
[3] = test system: CCRF-CEM
[4] = test system: KM12
[5] = test system: SNB-75
[6] = test system: MOLT-4
[7] = test system: NCI-H226
[8] = test system: SK-OV-3
[9] = test system: PC-3
[10] = test system: LOX IMVI
[11] = test system: SW-620
[12] = test system: SF-295
[13] = test system: NCI-H23
[14] = test system: 786-0
[15] = test system: HOP-62
[16] = test system: UACC-257
[17] = test system: OVCAR-8
[18] = test system: HL-60
[19] = test system: HCC 2998
[20] = test system: SF-539

Compound	GI50 [1]	GI50 [2]	GI50 [3]	GI50 [4]	GI50 [5]	GI50 [6]	GI50 [7]	GI50 [8]	GI50 [9]	GI50 [10]	GI50 [11]	GI50 [12]	GI50 [13]	GI50 [14]	GI50 [15]	GI50 [16]	GI50 [17]	GI50 [18]	GI50 [19]	GI50 [20]
O=[N+]([O-])c1ccc(N/N=C2\C=CCCC2)c([N+](=O)[O-])c1	> 100 µM (inactive)	> 100 µM (inactive)	> 100 µM (inactive)	> 100 µM (inactive)	27.2 µM (inactive)	> 10 µM (inactive)	> 100 µM (inactive)	> 100 µM (inactive)	> 100 µM (inactive)	> 100 µM (inactive)	> 100 µM (inactive)	31.3 µM (inactive)	> 100 µM (inactive)	> 100 µM (inactive)	63.5 µM (inactive)	> 100 µM (inactive)	> 100 µM (inactive)	> 100 µM (inactive)	–	–
Cc1cc(N)ccc1/N=N\c1ccc(S(=O)(=O)CCOS(=O)(=O)O)cc1	0.614 µM (active)	0.463 µM (active)	0.382 µM (active)	2.87 µM (inactive)	1.04 µM (active)	0.23 µM (active)	3.37 µM (inactive)	–	0.292 µM (active)	0.343 µM (active)	0.368 µM (active)	2.63 µM (inactive)	0.7 µM (active)	0.414 µM (active)	6.1 µM (inactive)	11.1 µM (inactive)	0.356 µM (active)	0.948 µM (active)	2.01 µM (inactive)	2.46 µM (inactive)
COC(=O)/C=C(\C(=O)OC)c1cc(C)c2cc(C(C)C)ccc(C)c1-2	24.9 µM (inactive)	53.3 µM (inactive)	71.4 µM (inactive)	37.4 µM (inactive)	–	> 100 µM (inactive)	53.3 µM (inactive)	85.9 µM (inactive)	29 µM (inactive)	45.2 µM (inactive)	34 µM (inactive)	41.7 µM (inactive)	31.8 µM (inactive)	75.5 µM (inactive)	34.8 µM (inactive)	–	55.1 µM (inactive)	34.7 µM (inactive)	28 µM (inactive)	30.5 µM (inactive)
CCOC(=O)c1c(C)noc1/N=N/N(CCO)CCO	29.1 µM (inactive)	37.5 µM (inactive)	16.9 µM (inactive)	36.6 µM (inactive)	10.2 µM (inactive)	21 µM (inactive)	23.6 µM (inactive)	57.4 µM (inactive)	31.8 µM (inactive)	32.4 µM (inactive)	28.3 µM (inactive)	23.7 µM (inactive)	30.3 µM (inactive)	38.2 µM (inactive)	32.6 µM (inactive)	25.6 µM (inactive)	38.3 µM (inactive)	26.1 µM (inactive)	22.3 µM (inactive)	–
O=c1c(Cc2ccc(Cl)cc2)nnc2sc(-c3ccc([N+](=O)[O-])cc3)nn12	19.6 µM (inactive)	33.5 µM (inactive)	23.2 µM (inactive)	26.4 µM (inactive)	–	> 100 µM (inactive)	–	38.3 µM (inactive)	20.7 µM (inactive)	29.2 µM (inactive)	31.1 µM (inactive)	45.2 µM (inactive)	20.7 µM (inactive)	33.3 µM (inactive)	49.1 µM (inactive)	17.1 µM (inactive)	35 µM (inactive)	24.4 µM (inactive)	17.9 µM (inactive)	–
O=C(NCC1Nc2ccncc2S(=O)(=O)N1)c1ccc(Br)cc1 (centres undefined)	37 µM (inactive)	> 100 µM (inactive)	–	40.6 µM (inactive)	73.6 µM (inactive)	46.2 µM (inactive)	> 100 µM (inactive)	> 100 µM (inactive)	17.7 µM (inactive)	38.6 µM (inactive)	41.2 µM (inactive)	> 100 µM (inactive)	66.1 µM (inactive)	> 100 µM (inactive)	> 100 µM (inactive)	> 100 µM (inactive)	35.9 µM (inactive)	30.1 µM (inactive)	51.9 µM (inactive)	–
CC(C)Oc1c(C2(c3ccccc3O)SCCCS2)c(=O)c1=O	> 100 µM (inactive)	> 100 µM (inactive)	20.5 µM (inactive)	51.5 µM (inactive)	36.1 µM (inactive)	57.5 µM (inactive)	63.5 µM (inactive)	> 100 µM (inactive)	> 100 µM (inactive)	> 100 µM (inactive)	> 100 µM (inactive)	> 100 µM (inactive)	89.3 µM (inactive)	> 100 µM (inactive)	> 100 µM (inactive)	> 100 µM (inactive)	> 100 µM (inactive)	54.2 µM (inactive)	–	> 100 µM (inactive)
COC(=O)/C=C\[C@@H]1[C@H](C)N1S(=O)(=O)c1ccc(C)cc1 (some centres undefined)	> 100 µM (inactive)	> 100 µM (inactive)	> 100 µM (inactive)	–	–	> 100 µM (inactive)	> 100 µM (inactive)	> 100 µM (inactive)	> 100 µM (inactive)	> 100 µM (inactive)	> 100 µM (inactive)	> 100 µM (inactive)	> 100 µM (inactive)	> 100 µM (inactive)	> 100 µM (inactive)	> 100 µM (inactive)	> 100 µM (inactive)	> 100 µM (inactive)	> 100 µM (inactive)	> 100 µM (inactive)
O=c1n(/N=C/c2ccccc2)c(=O)n2n1C1C=CC2CC1	> 100 µM (inactive)	> 100 µM (inactive)	> 100 µM (inactive)	> 100 µM (inactive)	> 100 µM (inactive)	> 100 µM (inactive)	> 100 µM (inactive)	> 100 µM (inactive)	> 100 µM (inactive)	> 100 µM (inactive)	> 100 µM (inactive)	> 100 µM (inactive)	> 100 µM (inactive)	> 100 µM (inactive)	> 100 µM (inactive)	> 100 µM (inactive)	> 100 µM (inactive)	> 100 µM (inactive)	–	> 100 µM (inactive)
O=C(c1ccccc1)C1C(C(=O)c2ccccc2)C(c2ccccc2)N(c2ccccc2)C1c1ccccc1 (centres undefined)	> 100 µM (inactive)	> 100 µM (inactive)	> 100 µM (inactive)	–	–	> 100 µM (inactive)	> 100 µM (inactive)	–	> 100 µM (inactive)	> 100 µM (inactive)	> 100 µM (inactive)	> 100 µM (inactive)	> 100 µM (inactive)	> 100 µM (inactive)	> 100 µM (inactive)	> 100 µM (inactive)	> 100 µM (inactive)	5.48 µM (inactive)	> 100 µM (inactive)	> 100 µM (inactive)
O=C(CN1CCOCC1)c1ccc2[nH]c(=O)oc2c1	> 100 µM (inactive)	> 100 µM (inactive)	> 100 µM (inactive)	> 100 µM (inactive)	77.4 µM (inactive)	> 100 µM (inactive)	> 100 µM (inactive)	> 100 µM (inactive)	> 100 µM (inactive)	> 100 µM (inactive)	> 100 µM (inactive)	> 100 µM (inactive)	> 100 µM (inactive)	> 100 µM (inactive)	> 100 µM (inactive)	> 100 µM (inactive)	> 100 µM (inactive)	> 100 µM (inactive)	–	> 100 µM (inactive)
Cc1nn(CNc2ccc(F)c(Cl)c2)c(=S)n1/N=C/c1ccc(-c2ccc(Cl)cc2Cl)o1	18.2 µM (inactive)	–	4.16 µM (inactive)	20.5 µM (inactive)	–	0.493 µM (active)	17.2 µM (inactive)	16.9 µM (inactive)	16.4 µM (inactive)	16.6 µM (inactive)	15.6 µM (inactive)	15.7 µM (inactive)	20.1 µM (inactive)	15.3 µM (inactive)	14.1 µM (inactive)	22.3 µM (inactive)	20.8 µM (inactive)	1.44 µM (inactive)	–	16.8 µM (inactive)
CC1CN=C(N(C(=O)Nc2ccccc2)c2ccc(Cl)c(Cl)c2)S1 (centres undefined)	19.8 µM (inactive)	16.6 µM (inactive)	> 10 µM (inactive)	30.5 µM (inactive)	> 100 µM (inactive)	> 10 µM (inactive)	–	52.7 µM (inactive)	26.8 µM (inactive)	25.9 µM (inactive)	30.5 µM (inactive)	45.5 µM (inactive)	32.8 µM (inactive)	31.1 µM (inactive)	97.3 µM (inactive)	32.2 µM (inactive)	35.6 µM (inactive)	30.3 µM (inactive)	24.8 µM (inactive)	40.5 µM (inactive)
N=C(Cc1ccccc1)NCC(=O)O	> 100 µM (inactive)	> 100 µM (inactive)	> 100 µM (inactive)	> 100 µM (inactive)	> 100 µM (inactive)	> 100 µM (inactive)	> 100 µM (inactive)	> 100 µM (inactive)	> 100 µM (inactive)	> 100 µM (inactive)	> 100 µM (inactive)	> 100 µM (inactive)	> 100 µM (inactive)	> 100 µM (inactive)	> 100 µM (inactive)	> 100 µM (inactive)	> 100 µM (inactive)	> 100 µM (inactive)	> 100 µM (inactive)	–
CC1(C)S[C@@H]2[C@H](NC(=O)[C@H](N)c3ccccc3)C(=O)N2[C@H]1C(=O)O [AMPICILLIN]	> 100 µM (inactive)	> 100 µM (inactive)	> 100 µM (inactive)	> 100 µM (inactive)	> 100 µM (inactive)	> 100 µM (inactive)	–	–	> 100 µM (inactive)	> 100 µM (inactive)	> 100 µM (inactive)	> 100 µM (inactive)	> 100 µM (inactive)	> 100 µM (inactive)	> 100 µM (inactive)	> 100 µM (inactive)	> 100 µM (inactive)	> 100 µM (inactive)	> 100 µM (inactive)	> 100 µM (inactive)
